Laboratory results reported in patent US6737383B1, “Herbicidal oxadiazolidines” (priority 1999, dated 2004).

What was measured:
bedstraw = test: Test B pre/postemergence bedstraw; type: in vivo, Galium aparine
In short: (§1)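 Herbicidal effect was estimated by eye on a ten-point control scale after plants spent twelve to sixteen days in a greenhouse following soil or foliar treatment. Foliar sprays targeted plants at one to four leaves; all doses were formulated in a non-phytotoxic solvent with surfactant.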

blackgrass = test: Test B pre/postemergence blackgrass; type: in vivo, Alopecurus myosuroides
In short: as §1

surinam grass = test: Test B pre/postemergence surinam grass; type: in vivo, Brachiaria decumbens
In short: as §1

cocklebur = test: Test B pre/postemergence cocklebur; type: in vivo, Xanthium strumarium
In short: as §1

corn = test: Test B pre/postemergence corn; type: in vivo, Zea mays; conditions: for Corn plant response rating: Postemergence; for Plant response rating, Corn: Preemergence
In short: as §1

crabgrass = test: Test B pre/postemergence crabgrass; type: in vivo, Digitaria sanguinalis
In short: as §1

giant foxtail = test: Test B pre/postemergence giant foxtail; type: in vivo, Setaria faberii
In short: as §1

pigweed = test: Test B pre/postemergence pigweed; type: in vivo, Amaranthus retroflexus
In short: as §1

soybean = test: Test B pre/postemergence soybean; type: in vivo, Glycine max
In short: as §1

sugar beet = test: Test B pre/postemergence sugar beet; type: in vivo, Beta vulgaris
In short: as §1

velvetleaf = test: Test B pre/postemergence velvetleaf; type: in vivo, Abutilon theophrasti
In short: as §1

wild oat = test: Test B pre/postemergence wild oat; type: in vivo, Avena fatua
In short: as §1

purple nutsedge = test: Test B pre/postemergence purple nutsedge; type: in vivo, Cyperus rotundus
In short: as §1

rice = test: Test B flood test rice; type: in vivo, Oryza sativa
In short: (§2)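 Read-out is a visual response score from 0 (no effect) to 10 (complete control), assigned by comparison with untreated controls. Treatment was applied at the 2-leaf stage, and plants stayed in the greenhouse for twelve to sixteen days before scoring.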

smallflower flatsedge = test: Test B flood test smallflower flatsedge; type: in vivo, Cyperus difformis
In short: as §2

bamyardgrass = test: Test B flood test barnyardgrass; type: in vivo, Echinochloa crus-galli
In short: as §2

[1] = Postemergence, Rate 62 g/ha, scale 0 to 10, 0 is no effect, 10 is complete control
[2] = Postemergence, Rate 250 g/ha, scale 0 to 10, 0 no effect, 10 complete control
[3] = Preemergence, Rate 62 g/ha, scale 0 to 10, 0 is no effect, 10 is complete control
[4] = Preemergence, Rate 125 g/ha, scale 0 to 10 (0 no effect, 10 complete control)
[5] = Preemergence, Rate 250 g/ha, scale of 0 to 10 where 0 is no effect and 10 is complete control
[6] = Preemergence, Rate 500 g/ha, scale 0 (no effect) to 10 (complete control)
[7] = Rate 125 g/ha, Postemergence, scale 0 to 10, 0 no effect, 10 complete control
[8] = Rate 500 g/ha, Postemergence, scale 0 to 10, 0 no effect, 10 complete control
[9] = Rate 62 g/ha, scale 0 to 10, 0 is no effect, 10 is complete control
[10] = Rate 125 g/ha, Postemergence section (flood test species), scale 0 to 10, 0 no effect, 10 complete control
[11] = Rate 500 g/ha, listed under Postemergence (flood test species), scale 0 to 10, 0 no effect, 10 complete control
[12] = flood test, listed under Postemergence, Rate 250 g/ha, scale 0 to 10, 0 no effect, 10 complete control

For `Cc1cccc(Cl)c1-n1c(=O)on(C(=O)N(c2ccc(Cl)cc2)C(C)C)c1=O` [Compound 54], which “Bedstraw plant response rating” value (bedstraw; [1]) is on record?
The value was 0.

And the “Bedstraw plant response rating” value (bedstraw; [2])?
The value was 4.

And the “Plant response rating, Bedstraw” value (bedstraw; [3])?
The value was 0.

And the “Plant response rating, Bedstraw” value (bedstraw; [4])?
The value was 0.

What about the “Plant response rating, Bedstraw” value (bedstraw; [5]) of the same molecule?
Its value is 0.

And the “Bedstraw plant response rating” value (bedstraw; [6])?
The value was “— — 0 0 0”.

What about the “Bedstraw plant response rating” value (bedstraw; [7]) of the same molecule?
Its value is 0.

What about the “Bedstraw plant response rating” value (bedstraw; [8]) of the same molecule?
The value was 7.

What about the “Blackgrass plant response rating” value (blackgrass; [1]) of the same molecule?
Its value is 0.

What about the “Blackgrass plant response rating” value (blackgrass; [2]) of the same molecule?
The value was 0.

And the “Plant response rating, Blackgrass” value (blackgrass; [3])?
Its value is 0.

And the “Plant response rating, Blackgrass” value (blackgrass; [4])?
Its value is 0.

And the “Plant response rating, Blackgrass” value (blackgrass; [5])?
The value was 0.

What about the “Blackgrass plant response rating” value (blackgrass; [6]) of the same molecule?
The value was 2.

What about the “Blackgrass plant response rating” value (blackgrass; [7]) of the same molecule?
Its value is 0.

What about the “Blackgrass plant response rating” value (blackgrass; [8]) of the same molecule?
The value was 2.

And the “B. signalgrass plant response rating” value (surinam grass; [1])?
The value was 0.

And the “B. signalgrass plant response rating” value (surinam grass; [2])?
Its value is 0.

What about the “Plant response rating, B. signalgrass” value (surinam grass; [3]) of the same molecule?
Its value is 0.

And the “Plant response rating, B. signalgrass” value (surinam grass; [4])?
The value was 0.

What about the “Plant response rating, B. signalgrass” value (surinam grass; [5]) of the same molecule?
The value was 0.

What about the “B. signalgrass plant response rating” value (surinam grass; [6]) of the same molecule?
The value was 2.

And the “B. signalgrass plant response rating” value (surinam grass; [7])?
Its value is 0.

And the “B. signalgrass plant response rating” value (surinam grass; Rate 500 g/ha, Postemergence, scale of 0 to 10 where 0 is no effect and 10 is complete control)?
The value was 0.

What about the “Cocklebur plant response rating” value (cocklebur; [1]) of the same molecule?
Its value is 0.

And the “Cocklebur plant response rating” value (cocklebur; [2])?
The value was 0.

What about the “Plant response rating, Cocklebur” value (cocklebur; [3]) of the same molecule?
Its value is 0.

What about the “Plant response rating, Cocklebur” value (cocklebur; [4]) of the same molecule?
Its value is 0.

And the “Plant response rating, Cocklebur” value (cocklebur; [5])?
The value was 0.

And the “Cocklebur plant response rating” value (cocklebur; [6])?
The value was “— 0 0 0 0”.

What about the “Cocklebur plant response rating” value (cocklebur; [7]) of the same molecule?
The value was 0.

And the “Cocklebur plant response rating” value (cocklebur; [8])?
Its value is 2.

What about the “Corn plant response rating” value (corn; [9]) of the same molecule?
Its value is 0.

What about the “Corn plant response rating” value (corn; Rate 250 g/ha, scale 0 to 10, 0 no effect, 10 complete control) of the same molecule?
The value was 0.

What about the “Plant response rating, Corn” value (corn; [9]) of the same molecule?
The value was 0.

What about the “Plant response rating, Corn” value (corn; Rate 125 g/ha, scale 0 to 10 (0 no effect, 10 complete control)) of the same molecule?
The value was 0.

And the “Plant response rating, Corn” value (corn; Rate 250 g/ha, scale of 0 to 10 where 0 is no effect and 10 is complete control)?
Its value is 0.

And the “Corn plant response rating” value (corn; Rate 125 g/ha, scale 0 to 10, 0 no effect, 10 complete control)?
The value was 0.

What about the “Corn plant response rating” value (corn; Rate 500 g/ha, scale 0 to 10, 0 no effect, 10 complete control) of the same molecule?
Its value is 0.

What about the “Crabgrass plant response rating” value (crabgrass; [1]) of the same molecule?
Its value is 0.

What about the “Crabgrass plant response rating” value (crabgrass; [2]) of the same molecule?
Its value is 2.

What about the “Plant response rating, Crabgrass” value (crabgrass; [3]) of the same molecule?
The value was 2.

What about the “Plant response rating, Crabgrass” value (crabgrass; [4]) of the same molecule?
Its value is 2.

And the “Plant response rating, Crabgrass” value (crabgrass; [5])?
Its value is 3.

And the “Crabgrass plant response rating” value (crabgrass; [6])?
Its value is 8.

And the “Crabgrass plant response rating” value (crabgrass; [7])?
The value was 0.

What about the “Crabgrass plant response rating” value (crabgrass; [8]) of the same molecule?
The value was 5.

And the “Giant foxtail plant response rating” value (giant foxtail; [1])?
The value was 3.

What about the “Giant foxtail plant response rating” value (giant foxtail; [2]) of the same molecule?
Its value is 3.

What about the “Plant response rating, Giant foxtail” value (giant foxtail; [3]) of the same molecule?
The value was 2.

What about the “Plant response rating, Giant foxtail” value (giant foxtail; [4]) of the same molecule?
The value was 3.

And the “Plant response rating, Giant foxtail” value (giant foxtail; [5])?
The value was 3.

What about the “Giant foxtail plant response rating” value (giant foxtail; [6]) of the same molecule?
Its value is 7.

And the “Giant foxtail plant response rating” value (giant foxtail; [7])?
Its value is 3.

And the “Giant foxtail plant response rating” value (giant foxtail; [8])?
The value was 5.

What about the “Redroot pigweed plant response rating” value (pigweed; [1]) of the same molecule?
The value was 0.

And the “Redroot pigweed plant response rating” value (pigweed; [2])?
Its value is 2.

What about the “Plant response rating, Redroot pigweed” value (pigweed; [3]) of the same molecule?
The value was 0.

What about the “Plant response rating, Redroot pigweed” value (pigweed; [4]) of the same molecule?
Its value is 0.

What about the “Plant response rating, Redroot pigweed” value (pigweed; [5]) of the same molecule?
Its value is 0.

And the “Redroot pigweed plant response rating” value (pigweed; [6])?
Its value is 0.

And the “Redroot pigweed plant response rating” value (pigweed; [7])?
Its value is 0.

And the “Redroot pigweed plant response rating” value (pigweed; [8])?
The value was 4.

And the “Soybean plant response rating” value (soybean; [1])?
Its value is 0.

What about the “Soybean plant response rating” value (soybean; [2]) of the same molecule?
The value was 0.

And the “Plant response rating, Soybean” value (soybean; [3])?
Its value is 0.

And the “Plant response rating, Soybean” value (soybean; [4])?
Its value is 0.

What about the “Plant response rating, Soybean” value (soybean; [5]) of the same molecule?
The value was 0.

What about the “Soybean plant response rating” value (soybean; [6]) of the same molecule?
Its value is 0.

What about the “Soybean plant response rating” value (soybean; [7]) of the same molecule?
Its value is 0.

What about the “Soybean plant response rating” value (soybean; [8]) of the same molecule?
The value was 0.

What about the “Sugarbeets plant response rating” value (sugar beet; [1]) of the same molecule?
Its value is 0.

What about the “Sugarbeets plant response rating” value (sugar beet; [2]) of the same molecule?
The value was 0.

What about the “Plant response rating, Sugarbeets” value (sugar beet; [3]) of the same molecule?
Its value is 0.

And the “Plant response rating, Sugarbeets” value (sugar beet; [4])?
Its value is 0.

And the “Plant response rating, Sugarbeets” value (sugar beet; [5])?
The value was 0.

What about the “Sugarbeets plant response rating” value (sugar beet; [6]) of the same molecule?
The value was 0.

And the “Sugarbeets plant response rating” value (sugar beet; [7])?
The value was 0.

And the “Sugarbeets plant response rating” value (sugar beet; [8])?
The value was 0.

What about the “Velvetleaf plant response rating” value (velvetleaf; [1]) of the same molecule?
Its value is 0.

And the “Velvetleaf plant response rating” value (velvetleaf; [2])?
The value was 0.

And the “Plant response rating, Velvetleaf” value (velvetleaf; [3])?
The value was 0.

And the “Plant response rating, Velvetleaf” value (velvetleaf; [4])?
The value was 0.

And the “Plant response rating, Velvetleaf” value (velvetleaf; [5])?
Its value is 0.

What about the “Velvetleaf plant response rating” value (velvetleaf; [6]) of the same molecule?
Its value is 0.

What about the “Velvetleaf plant response rating” value (velvetleaf; [7]) of the same molecule?
The value was 0.

What about the “Velvetleaf plant response rating” value (velvetleaf; [8]) of the same molecule?
Its value is 0.

And the “Wild oats plant response rating” value (wild oat; [1])?
Its value is 0.

And the “Wild oats plant response rating” value (wild oat; [2])?
The value was 0.

What about the “Plant response rating, Wild oats” value (wild oat; [4]) of the same molecule?
The value was 0.

What about the “Plant response rating, Wild oats” value (wild oat; [5]) of the same molecule?
The value was 0.

What about the “Wild oats plant response rating” value (wild oat; [6]) of the same molecule?
The value was 0.

What about the “Wild oats plant response rating” value (wild oat; [7]) of the same molecule?
Its value is 0.

And the “Wild oats plant response rating” value (wild oat; [8])?
The value was 0.

And the “Nutsedge plant response rating” value (purple nutsedge; [1])?
The value was 0.

What about the “Nutsedge plant response rating” value (purple nutsedge; [2]) of the same molecule?
The value was 0.

What about the “Plant response rating, Nutsedge” value (purple nutsedge; [3]) of the same molecule?
The value was 0.

What about the “Plant response rating, Nutsedge” value (purple nutsedge; [4]) of the same molecule?
Its value is 0.

And the “Plant response rating, Nutsedge” value (purple nutsedge; [5])?
Its value is 0.

And the “Nutsedge plant response rating” value (purple nutsedge; [6])?
The value was 0.

What about the “Nutsedge plant response rating” value (purple nutsedge; [7]) of the same molecule?
The value was 0.

What about the “Nutsedge plant response rating” value (purple nutsedge; [8]) of the same molecule?
Its value is 0.

What about the “Rice plant response rating” value (rice; [1]) of the same molecule?
The value was 0.

What about the “Rice plant response rating” value (rice; [10]) of the same molecule?
The value was 0.

And the “Rice plant response rating” value (rice; [11])?
The value was 0.

What about the “Rice plant response rating” value (rice; [12]) of the same molecule?
Its value is 0.

And the “S. Flatsedge plant response rating” value (smallflower flatsedge; [1])?
The value was 0.

And the “S. Flatsedge plant response rating” value (smallflower flatsedge; [10])?
Its value is 0.

And the “S. Flatsedge plant response rating” value (smallflower flatsedge; [11])?
The value was 0.

And the “S. Flatsedge plant response rating” value (smallflower flatsedge; [12])?
Its value is 0.

What about the “Barnyardgrass plant response rating” value (bamyardgrass; [1]) of the same molecule?
Its value is 0.

And the “Barnyardgrass plant response rating” value (bamyardgrass; [10])?
Its value is 0.

And the “Barnyardgrass plant response rating” value (bamyardgrass; [11])?
The value was 0.

And the “Barnyardgrass plant response rating” value (bamyardgrass; [12])?
The value was 0.
